A word on the EC50: it is the concentration that produces a half-maximal response. One may read the IC50 as the midpoint of a concentration-inhibition curve. Usually Ki stands for a dissociation constant, usually derived from enzyme kinetics or from competition with a known ligand.

The structures appear in SMILES notation. Read-outs that look alike come from different tables or passages of the source.

The source of these data is patent US12606543B2, “Indole derivatives as serotonergic agents useful for the treatment of disorders related thereto” (priority 2023, dated 2026).

One data set addresses T1, human 5-HT2C receptor (Homo sapiens, UniProt P28335).
T1 construct: expressed in transfected cells; host or cells: U2OS
T1 sequence (P28335 33-458): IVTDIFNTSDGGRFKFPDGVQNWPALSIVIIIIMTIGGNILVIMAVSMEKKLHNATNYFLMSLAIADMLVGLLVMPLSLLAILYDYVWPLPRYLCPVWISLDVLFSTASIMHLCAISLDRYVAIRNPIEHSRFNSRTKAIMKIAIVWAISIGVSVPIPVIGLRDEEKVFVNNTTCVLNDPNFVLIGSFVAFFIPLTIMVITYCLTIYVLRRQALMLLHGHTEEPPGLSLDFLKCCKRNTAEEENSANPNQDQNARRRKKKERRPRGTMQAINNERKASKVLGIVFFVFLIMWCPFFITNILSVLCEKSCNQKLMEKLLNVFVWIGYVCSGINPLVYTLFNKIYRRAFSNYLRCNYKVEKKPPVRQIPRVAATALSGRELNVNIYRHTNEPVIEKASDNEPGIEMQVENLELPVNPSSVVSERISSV
In words: cell-based. Conditions: calcium mobilization FLIPR; for Emax (% of serotonin): U2OS cells, relative to maximum response of serotonin; for EC50: stably transfected U2OS cells. On the technique in general: Calcium flux is commonly read through the fluorescence of an indicator in the cells.

A short description of data set [1]: Pharmacokinetic studies in rat (i.v.). The format is in vivo. The settings on record: male, Sprague-Dawley, plasma; for concentration at 0.25 h / concentration at 1 h / concentration at 4 h: intravenous, dose per Dose column (1.32-2.09 mg/kg); for half-life / AUC(0-t): iv, rat plasma, i.v., dose per Dose column; for half-life: estimated from 2 points only. How it is done: Animals: Male Sprague-Dawley rats (˜225-350 g) from Charles River Labs were acclimatized for a minimum of 5 days prior to start of study procedures. Body weights were recorded on the day of dosing.
Any abnormalities were documented including presence/absence of wet dog shakes/back muscle contractions (WDS/BMC).
Dosing: Formulations were administered intravenously (i.v.) via the tail vein using a 25 G needle connected to a 1 cc syringe.
The exemplary compounds of Formula (I) were freshly prepared at the appropriate concentrations in 5% Tween-80 in saline.
Blood collection time (h): 0, […], 1 and 4
Volume/time-point: ˜0.25 mL (saphenous vein)
Instrumentation: AB Sciex QTRAP 4000 or 6500 MS/MS system equipped with an LC system with a binary pump, a solvent degasser, a thermostated column compartment, and a multiplate autosampler.
Analysis software: Phoenix® WinNonlin® 8.3 (Pharsight, Certara, Mountainview, CA).
Analysis methods: non-compartmental analysis, linear up/log down trapezoidal rule.
PK parameters: t1/2 and AUC0-tlast was estimated.
The Compounds of Formula (I) were freshly prepared at the appropriate concentrations in 5% Tween-80 in saline.
Instrumentation: AB Sciex QTRAP 4000 or 6500 MS/MS system equipped with an LC system with a binary pump, a solvent degasser, a thermostated column compartment and a multiplate autosampler.
PK parameters: t1/2 and AUC0-tlast will be estimated.

Another data set addresses human 5-HT2B receptor (Homo sapiens, UniProt P41595). The data set can be described thus: Human 5-HT2B radioligand binding assay ([3H]-LSD). Conditions: [3H]-LSD displacement, cell membrane, 37° C., 90 min. As for the experimental part: The objective of this study was to evaluate the binding properties of test compounds on 5-HT2B.
1) The assay buffer was prepared following Table 29 below.
2) Eight doses of reference and test compounds starting from 10 mM stock solution as requested by 5-fold serial dilutions with 100% (v/v) DMSO.
3) UniFilter-96 GF/B plate was pretreated: • a. 50 μL/well of 0.5% (v/v) PEI to UniFilter-96 GF/B plates. The plates were sealed and incubated at 4° C. for 3 hrs. • b. After incubation, the plates were washed 3 times with ice-cold wash buffer (50 mM Tris, pH 7.4).
4) Assay plate preparation: • a. Cell membrane was diluted with assay buffer and 330 μL/well added to 96 round deep well plates to reach a concentration of 1 unit/well. • b. Eight concentrations of reference or test compounds were prepared and 110 μL/well added to 96 round deep well plates. • c. [3H]-LSD was diluted with assay buffer to 5 nM (5× final concentration) and 110 μL/well was added to 96 round deep well plates.
5) The plate was centrifuged at 1000 rpm for 30 secs and then agitated at 600 rpm at room temperature for 5 mins.
6) The plates were sealed and incubated at 37° C. for 90 mins.
7) The incubation was stopped by vacuum filtration onto GF/B filter plates followed by washing four times with ice-cold wash buffer (50 mM Tris, pH7.4).
9) The filter plates were sealed and 40 μL/well of scintillation cocktail was added.
10) The plate was read using a Microbeta2 microplate counter.
For reference and test compounds, the results are expressed as % Inhibition, using the normalization equation: N=100−100×(U−C2)/(C1−C2), where U is the unknown value, C1 is the average of high controls, and C2 is the average of low controls. The IC50 is determined by fitting percentage of inhibition as a function of compound concentrations with Hill equation.
The objective of this study is to evaluate the binding properties of test compounds on 5-HT2B.
1) The assay buffer was prepared following Table 59 below.
3) UniFilter-96 GF/B plate was pretreated: • a. 50 μL/well of 0.5% (v/v) PEI to UniFilter-96 GF/B plates. The plates were sealed and incubate at 4° C. for 3 hrs. • b. After incubation, the plates were washed three times with ice-cold wash buffer (50 mM Tris, pH7.4).
5) The plate was centrifuged at 1000 rpm for 30 secs and then agitated at 600 rpm at room temperature for 5 min.
8) The plates were dried at 37° C. for 45 mins.
10) The plate was read using a Microbeta^2 microplate counter.
For reference and test compounds, the results are expressed as % Inhibition, using the normalization equation: N=100−100×(U−C2)/(C1−C2), where U is the unknown value, C1 is the average of the high controls, and C2 is the average of the low controls. The IC50 is determined by fitting percentage of inhibition as a function of compound concentrations with Hill equation.

Setting [2] is: first animal (R07/R04/R01/R10), read-out: Plasma concentration.
Setting [3] is: mean of 3 rats, read-out: Plasma concentration, Mean ± SD.
[4] abbreviates: second animal (R08/R05/R02/R11), read-out: Plasma concentration.
Setting [5] is: third animal (R09/R06/R03/R12), read-out: Plasma concentration.
Where [6] appears, read: first animal (R07/R04/R01/R10), read-out: Apparent t1/2 (converted).
Setting [7] is: mean of 3 rats, read-out: Apparent t1/2, Mean ± SD (converted).
Where [8] appears, read: second animal (R08/R05/R02/R11), read-out: Apparent t1/2 (converted).
Setting [9] is: third animal (R09/R06/R03/R12), read-out: Apparent t1/2 (converted).
[10] abbreviates: first animal (R07/R04/R01/R10), read-out: AUC0-tlast.
Setting [11] is: mean of 3 rats, read-out: AUC0-tlast, Mean ± SD.
The mark [12] stands for this setting: second animal (R08/R05/R02/R11), read-out: AUC0-tlast.
Setting [13] is: third animal (R09/R06/R03/R12), read-out: AUC0-tlast.

Chain of human 5-HT2B receptor (P41595 whole entry): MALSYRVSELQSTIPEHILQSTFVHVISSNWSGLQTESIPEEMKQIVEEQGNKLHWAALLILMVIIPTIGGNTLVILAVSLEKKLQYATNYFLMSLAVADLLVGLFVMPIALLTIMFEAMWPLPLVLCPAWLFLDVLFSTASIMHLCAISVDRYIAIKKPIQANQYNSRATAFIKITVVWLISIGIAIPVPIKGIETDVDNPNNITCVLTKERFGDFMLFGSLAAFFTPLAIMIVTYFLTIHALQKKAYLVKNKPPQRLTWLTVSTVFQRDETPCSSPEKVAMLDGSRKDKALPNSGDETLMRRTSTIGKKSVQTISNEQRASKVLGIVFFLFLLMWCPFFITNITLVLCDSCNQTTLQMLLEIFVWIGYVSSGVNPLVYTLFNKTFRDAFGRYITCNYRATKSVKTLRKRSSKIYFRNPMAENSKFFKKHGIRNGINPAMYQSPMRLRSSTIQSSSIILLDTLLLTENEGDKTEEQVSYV

With `[2H]C([2H])(c1c[nH]c2ccc(OCCCCCN3C(=O)[C@H]4CCCC[C@H]4C3=O)cc12)[C@H]1CCCN1C([2H])([2H])[2H]` [Cis (R) I-248, 2-(5-((3-(((R)-1-(Methyl-d3)pyrrolidin-2-yl)methyl-d2)-1H-indol-5-yl)oxy)pentyl)hexahydro-1H-isoindole-1,3(2H)-dione], at human 5-HT2C receptor, the “Emax (% of serotonin)” value is recorded as 89.99 % of serotonin and the EC50 stood at 151 nM.
Turning to `[2H]C([2H])(c1c[nH]c2ccc(OCCCCCN3C(=O)c4ccccc4C3=O)cc12)[C@H]1CCCN1C([2H])([2H])[2H]` [(R) I-245, (R)-2-(5-((3-((1-(Methyl-d3)pyrrolidin-2-yl)methyl-d2)-1H-indol-5-yl)oxy)pentyl)isoindoline-1,3-dione], the “Emax (% of serotonin)” value on human 5-HT2C receptor was 83.29 % of serotonin. In addition, at human 5-HT2C receptor, the EC50 worked out at 42.3 nM. The concentration at 0.25 h in data set [1] (setting [2]) stood at 307 ng/mL; in data set [1] (setting [3]), 178 ± 119 ng/mL; in data set [1] (setting [4]), 154 ng/mL; in data set [1] (setting [5]), 71.8 ng/mL. Further, the concentration at 1 h came out at 170 ng/mL in data set [1] (setting [2]), 130 ± 36.6 ng/mL in data set [1] (setting [3]), 121 ng/mL in data set [1] (setting [4]) and 98.3 ng/mL in data set [1] (setting [5]). Besides, the concentration at 4 h in data set [1] (setting [2]) was 39.9 ng/mL; in data set [1] (setting [3]) it was 43.9 ± 4.21 ng/mL; in data set [1] (setting [4]), 43.6 ng/mL; in data set [1] (setting [5]), 48.3 ng/mL. Further, the half-life in data set [1] (setting [6]) is 1.32 h; in data set [1] (setting [7]), 2.1 ± 0.806 h; in data set [1] (setting [8]), 2.05 h; in data set [1] (setting [9]) it was 2.93 h. Further, the AUC(0-t) came to 528 ng·h/mL in data set [1] (setting [10]), 397 ± 120 ng·h/mL in data set [1] (setting [11]), 370 ng·h/mL in data set [1] (setting [12]) and 293 ng·h/mL in data set [1] (setting [13]).
For `[2H]C([2H])(c1c[nH]c2ccc(OCCCCCN3C(=O)C4CCCCC4C3=O)cc12)[C@H]1CCCN1C([2H])([2H])[2H]` (mixture of isomers) [Rac (R) I-248], the IC50 on human 5-HT2B receptor (read-out: 5-HT2B, IC50) turned out to be 46.3 nM. The Ki at human 5-HT2B receptor (read-out: 5-HT2B, Ki) turned out to be 23.9 nM. Further, the concentration at 0.25 h in data set [1] (setting [2]) came to 235 ng/mL; in data set [1] (setting [3]) it was 377 ± 123 ng/mL; in data set [1] (setting [4]), 437 ng/mL; in data set [1] (setting [5]) it was 459 ng/mL. In addition, the concentration at 1 h was 134 ng/mL in data set [1] (setting [2]), 144 ± 15.9 ng/mL in data set [1] (setting [3]), 135 ng/mL in data set [1] (setting [4]) and 162 ng/mL in data set [1] (setting [5]). Moreover, the concentration at 4 h worked out at 27.8 ng/mL in data set [1] (setting [2]), 18.8 ± 8.29 ng/mL in data set [1] (setting [3]), 11.5 ng/mL in data set [1] (setting [4]) and 17 ng/mL in data set [1] (setting [5]). For the same compound, the half-life is 1.25 h in data set [1] (setting [6]), 0.939 ± 0.269 h in data set [1] (setting [7]), 0.747 h in data set [1] (setting [8]) and 0.823 h in data set [1] (setting [9]). For the same compound, the AUC(0-t) in data set [1] (setting [10]) worked out at 402 ng·h/mL; in data set [1] (setting [11]) it was 474 ± 71 ng·h/mL; in data set [1] (setting [12]), 477 ng·h/mL; in data set [1] (setting [13]) it was 544 ng·h/mL.
